Results on 16 compounds are retold here after patent publication US6833372B2, “Non-peptide GnRH agents, Pharmaceutical compositions, and methods for their use” (Pfizer, Inc., priority 2002, dated 2004).

Structures are written as SMILES.

One assay concerns the target T1, human GnRH receptors (Homo sapiens, UniProt P30968).
T1 construct: expressed in transfected cells; host or cells: HEK 293 cells, stably transfected; membranes
T1 sequence (P30968 1-328): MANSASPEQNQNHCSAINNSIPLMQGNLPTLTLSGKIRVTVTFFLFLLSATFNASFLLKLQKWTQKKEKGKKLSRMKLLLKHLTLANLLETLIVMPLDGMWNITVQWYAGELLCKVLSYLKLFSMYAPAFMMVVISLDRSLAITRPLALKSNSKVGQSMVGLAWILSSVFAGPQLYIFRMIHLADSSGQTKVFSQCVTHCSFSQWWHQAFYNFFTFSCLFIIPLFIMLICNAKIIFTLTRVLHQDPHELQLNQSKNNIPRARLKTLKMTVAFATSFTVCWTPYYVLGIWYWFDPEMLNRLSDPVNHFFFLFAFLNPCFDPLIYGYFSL
Kind of assay: Radioligand binding: inhibition of 125I-GnRH-A binding to human GnRH receptor membranes. The settings on record: HEK 293 cell membranes. The method, then:
HEK 293 cells stably transfected with mouse or human GnRH receptors as described above were grown in Dulbecco's high-glucose, modified Eagle's medium (DMEM) supplemented with 0.2% G418, 10% fetal bovine serum (FBS) and 100 U/mL penicillin/streptomycin. GH3 cells stably transfected with the rat GnRH receptor (GGH3) were provided by Dr. William Chin (Harvard Medical School, Boston, Mass.). These cells have been extensively characterized previously (Kaiser et al., 1997). The cells were grown in low glucose DMEM containing: 100U/mL penicillin/streptomycin, 0.6% G418 and 10% heat-inactivated FBS.
(§1) HEK 293 cells containing mouse or human receptors, or rat pituitaries (Pel Freez Biologicals, Rogers, Ark.) were homogenized in buffer A containing: 50 mM Tris (pH 7.4), 0.32 M sucrose, 2 mM EGTA, 1 mM PMSF, 5 μg/ml aprotinen, 5 μg/ml Pepstatin A, and 1 μg/ml leupeptin. Homogenized cells were centrifuged at 4° C. at 20,000×g for 25 minutes, re-suspended in buffer A and re-centrifuged at 4° C. at 20,000×g for an additional 25 minutes. Total membrane protein was determined with a BCA kit (Pierce, Rockford, Ill.). Membranes were stored at −70° C. at a final membrane protein concentration of approximately 5 mg/ml.
(§2) The radioiodinated agonist analog of GnRH, [des-Gly^10,D-Ala^6]GnRH ethylamide (^125I-GnRH-A), was used as the radioligand. […] The reaction mixture was vortexed and incubated for 1 minute at room temperature. After one minute, the mixture was vortexed and allowed to incubate for an additional minute. 2 ml of 0.5 M acetic acid/1% BSA was added to the reaction tube and the mixture was added to a C18 Sep-Pak cartridge. The cartridge was washed with subsequent washes of 5 ml H2O and 5 ml 0.5 M acetic acid and then eluted with 5×1 ml of 60% CH3CN/40% 0.5 M acetic acid. The eluate was diluted with 3× volume of HPLC buffer A (0.1% TFA in H2O) and loaded onto a C18 column. The iodinated product was eluted over 20-25 min with a gradient of 25-100% CH3CN containing 0.1% TFA. The radioactive fractions (750 μl/fraction) were collected into clean polypropylene tubes containing 100 μl of 10% BSA. Fractions were assessed for biological activity by radioligand binding. Specific activity of the radioligand was approximately 2200 Ci/mmol.
(§3) Membranes were diluted to 0.01-0.5 mg/ml (depending upon the species of receptor) with assay buffer containing 50 mM HEPES (pH 7.4), 1 mM EDTA, 2.5 mM MgCl2, and 0.1% BSA. Membranes (diluted to utilize similar receptor numbers between assays) were incubated with approximately 0.04-0.06 nM ^125I-GnRH-A in the presence or absence of competing agents (0.1-10,000 nM) in a total volume of 200 μl in 96-well polypropylene plates for 1 hour at room temperature. Assays were stopped by rapid filtration onto 96-well GF/C filters soaked in 0.1% polyethylenimine (PEI) utilizing a Packard 96-well cell harvester. Filters were washed three times with ice-cold PBS (50 mM NaPO4, 0.9% NaCl, 2 mM MgCl2, and 0.02% NaN3, pH 7.4). 35 μl of scintillation cocktail was added to each filter well and filters were counted on a Packard Topcount. Control dose-response curves were generated to GnRH (0.1 nM-100 nM) in each competition binding experiment. Ki values were calculated from IC50 values according to Cheng et al., Biochemical Pharmacol. 22: 3099-3108, 1973. [formula]
The Ki is a dissociation constant, usually derived from enzyme kinetics or from competition with a known ligand. As to `COc1nc(Oc2ccccc2)nc(OC)c1NC(=O)c1ccc(Cc2cc3c(cc2C)C(C)(C)OC3(C)C)o1` [Example A2, 5-(1,1,3,3,6-Pentamethyl-1,3-dihydro-isobenzofuran-5-ylmethyl)-furan-2-carboxylic acid (4,6-dimethoxy-2-phenoxy-pyrimidin-5-yl)-amide], the Ki came to 7.6 nM. As to `CCc1ccc(CN(CCCO)c2nc(OC)c(NC(=O)c3ccc(Cc4cc5c(cc4C)C(C)(C)OC5(C)C)o3)c(OC)n2)cc1` [Example D48, N-{2-[(4-Ethylbenzyl)(3-hydroxypropyl)amino]-4,6-dimethoxypyrimidin-5-yl}-5-[(1,1,3,3,6-pentamethyl-1,3-dihydro-2-benzofuran-5-yl)methyl]-2-furamide], affinity was put at a Ki of 240 nM. For the compound `CCOC(=O)CN(Cc1ccccc1)c1nc(OC)c(NC(=O)c2ccc(Cc3cc4c(cc3C)C(C)(C)OC4(C)C)o2)c(OC)n1` [Example D51, Ethyl N-benzyl-N-[4,6-dimethoxy-5-({5-[(1,1,3,3,6-pentamethyl-1,3-dihydro-2-benzofuran-5-yl)methyl]-2-furoyl}amino)pyrimidin-2-yl]glycinate], the Ki stood at 202 nM. `COc1ccccc1C1CCN(c2nc(OC)c(NC(=O)c3ccc(Cc4cc5c(cc4C)C(C)(C)OC5(C)C)o3)c(OC)n2)CC1` [Example D52, N-{4,6-Dimethoxy-2-[4-(2-methoxyphenyl)piperidin-1-yl]pyrimidin-5-yl}-5-[(1,1,3,3,6-pentamethyl-1,3-dihydro-2-benzofuran-5-yl)methyl]-2-furamide]: the Ki was 260 nM. For `COc1nc(N2CCN(Cc3ccncc3)CC2)nc(OC)c1NC(=O)c1ccc(Cc2cc3c(cc2C)C(C)(C)OC3(C)C)o1` [Example D54, N-{4,6-Dimethoxy-2-[4-(pyridin-4-ylmethyl)piperazin-1-yl]pyrimidin-5-yl}-5-[(1,1,3,3,6-pentamethyl-1,3-dihydro-2-benzofuran-5-yl)methyl]-2-furamide], the Ki is 150 nM.

As for `COc1nc(NCc2ccc(-c3ccccc3)cc2)nc(OC)c1NC(=O)c1ccc(Cc2cc3c(cc2C)C(C)(C)OC3(C)C)o1` [Example D55, N-{2-[(1,1′-Biphenyl-4-ylmethyl)amino]-4,6-dimethoxypyrimidin-5-yl}-5-[(1,1,3,3,6-pentamethyl-1,3-dihydro-2-benzofuran-5-yl)methyl]-2-furamide], affinity was put at a Ki of 160 nM.

Consider `COc1nc(N2CCN(c3cc(C(F)(F)F)nc4ccccc34)CC2)nc(OC)c1NC(=O)c1ccc(Cc2cc3c(cc2C)C(C)(C)OC3(C)C)o1` [Example D61, N-(4,6-dimethoxy-2-{4-[2-(trinfluoromethyl)quinolin-4-yl]piperazin-1-yl}pyrimidin-5-yl)-5-[(1,1,3,3,6-pentamethyl-1,3-dihydro-2-benzofuran-5-yl)methyl]-2-furamide], for which the affinity corresponds to a Ki of 500 nM. For the compound `COc1nc(N2CCN(c3ccc(Cl)cc3)CC2)nc(OC)c1NC(=O)c1ccc(Cc2cc3c(cc2C)C(C)(C)OC3(C)C)o1` [Example D62, N-{2-[4-(4-Chlorophenyl)piperazin-1-yl]-4,6-dimethoxypyrimidin-5-yl}-5-[(1,1,3,3,6-pentamethyl-1,3-dihydro-2-benzofuran-5-yl)methyl]-2-furamide], the Ki came out at 120 nM. In turn, `COc1nc(NCCCN2CCN(C)CC2)nc(OC)c1NC(=O)c1ccc(Cc2cc3c(cc2C)C(C)(C)OC3(C)C)o1` [Example D63, N-(4,6-Dimethoxy-2-{[3-(4-methylpiperazin-1-yl)propyl]amino}pyrimidin-5-yl)-5-[(1,1,3,3,6-pentamethyl-1,3-dihydro-2-benzofuran-5-yl)methyl]-2-furamide] had a Ki of 1.8 nM.

In turn, `COc1nc(N[C@H](CO)Cc2c[nH]c3ccccc23)nc(OC)c1NC(=O)c1ccc(Cc2cc3c(cc2C)C(C)(C)OC3(C)C)o1` [Example D64, N-(2-{[(1S)-2-Hydroxy-1-(1H-indol-3-ylmethyl)ethyl]amino}-4,6-dimethoxypyrimidin-5-yl)-5-[(1,1,3,3,6-pentamethyl-1,3-dihydro-2-benzofuran-5-yl)methyl]-2-furamide] registered a Ki of 21 nM.

Compound `COc1nc(NCCc2ccccn2)nc(OC)c1NC(=O)c1ccc(Cc2cc3c(cc2C)C(C)(C)OC3(C)C)o1` [Example D65, N-{4,6-Dimethoxy-2-[(2-pyridin-2-ylethyl)amino]pyrimidin-5-yl}-5-[(1,1,3,3,6-pentamethyl-1,3-dihydro-2-benzofuran-5-yl)methyl]-2-furamide] yielded a Ki of 6.7 nM.

`COc1nc(NCCc2ccncc2)nc(OC)c1NC(=O)c1ccc(Cc2cc3c(cc2C)C(C)(C)OC3(C)C)o1` [Example D66, N-{4,6-Dimethoxy-2-[(2-pyridin-4-ylethyl)amino]pyrimidin-5-yl}-5-[(1,1,3,3,6-pentamethyl-1,3-dihydro-2-benzofuran-5-yl)methyl]-2-furamide] came in with a Ki of 5.1 nM. `COc1nc(NCCCN2CCOCC2)nc(OC)c1NC(=O)c1ccc(Cc2c(C)cc3c(c2C)C(C)(C)CO3)o1` [Example H1, N-{4,6-Dimethoxy-2-[(3-morpholin-4-ylpropyl)amino]-pyrimidin-5-yl}-5-[(3,3,4,6-tetramethyl-2,3-dihydro-1-benzofuran-5-yl)methyl]-2-furamide] showed a Ki of 50 nM. Consider `COc1nc(NCCCN2CCN(C)CC2)nc(OC)c1NC(=O)c1ccc(Cc2c(C)cc3c(c2C)C(C)(C)CO3)o1` [Example H2, N-(4,6-Dimethoxy-2-{[3-(4-methylpiperazin-1-yl)propyl]amino}pyrimidin-5-yl)-5-[(3,3,4,6-tetramethyl-2,3-dihydro-1-benzofuran-5-yl)methyl]-2-furamide], for which the Ki came to 47 nM. `COc1nc(NCCCN(C)C)nc(OC)c1NC(=O)c1ccc(Cc2c(C)cc3c(c2C)C(C)(C)CO3)o1` [Example H3, N-(2-{[3-(Dimethylamino)propyl]amino}-4,6-dimethoxypyrimidin-5-yl)-5-[(3,3,4,6-tetramethyl-2,3-dihydro-1-benzofuran-5-yl)methyl]-2-furamide] had a Ki of 46 nM. Take `COc1nc(NCCCN(C)C)nc(OC)c1NC(=O)c1ccc(Cc2cc3c(cc2C)C(C)(C)CC3(C)C)o1` [Example J1, N-(2-{[3-(dimethylamino)propyl]amino}-4,6-dimethoxypyrimidin-5-yl)-5-[(1,1,3,3,6-pentamethyl-2,3-dihydro-1H-inden-5-yl)methyl]-2-furamide]: the Ki is 0.2 nM.

For the next assay, the target named is T2, rat GnRH receptor (Rattus norvegicus, UniProt P30969).
T2 construct: or rat pituitaries (Pel Freez Biologicals, Rogers, Ark.) were homogenized; tissue Pel Freez Biologicals; host or cells: rat pituitaries (membrane preparation)
T2 sequence (P30969 1-327): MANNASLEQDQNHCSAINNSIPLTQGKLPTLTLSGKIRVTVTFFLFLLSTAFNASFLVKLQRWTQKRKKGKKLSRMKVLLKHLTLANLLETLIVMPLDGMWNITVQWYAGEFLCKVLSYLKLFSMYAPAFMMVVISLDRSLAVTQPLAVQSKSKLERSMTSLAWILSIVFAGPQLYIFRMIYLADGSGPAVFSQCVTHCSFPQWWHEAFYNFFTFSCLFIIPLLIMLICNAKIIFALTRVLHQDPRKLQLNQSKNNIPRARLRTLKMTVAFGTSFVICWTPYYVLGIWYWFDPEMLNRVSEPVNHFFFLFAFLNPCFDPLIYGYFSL
Kind of assay: Radioligand binding: inhibition of 125I-GnRH-A binding to rat GnRH receptor (rat pituitary membranes). The settings on record: read-out: Ki (nM), Inhibition Binding of 125I-GnRH-A to GnRH Receptors. The method, then: as §1, §2, §3
As to `COc1nc(Oc2ccccc2)nc(OC)c1NC(=O)c1ccc(Cc2cc3c(cc2C)C(C)(C)OC3(C)C)o1` [Example A2, 5-(1,1,3,3,6-Pentamethyl-1,3-dihydro-isobenzofuran-5-ylmethyl)-furan-2-carboxylic acid (4,6-dimethoxy-2-phenoxy-pyrimidin-5-yl)-amide], the Ki was 9 nM.
